# US10954300B2, “Use of pentoxifylline with immune checkpoint-blockade therapies for the treatment of melanoma” (THE TRUSTEES OF COLUMBIA UNIVERSITY IN THE CITY OF NEW YORK, priority 2015, dated 2021)
# Key:
# Treg cells [1] = assay: In vivo suppression (colitis) assay with PTXF-treated Treg cells; design: species or system RAG1−/− mice; details: Treg transferred with naïve Tconv cells
# Procedure: Total cells suspensions were then activated with 5 μg/mL plate-coated anti-mCD3, 1 μg/ml soluble anti-mCD28 (BioLegend) and 10 ng/mL mIL-2, overnight at 37 C. Treg cells were then washed for further use. For in vitro assays, CD45.1^+ naïve conventional CD4+ T cells were magnetically isolated (Miltenyi) and labelled with CellTrace Violet Proliferation Tracker (Life Technologies). They were cultured with T-cell depleted, mitomycin C-treated WT splenocytes and 2.5 μg/mL anti-mCD3, in the presence or not of treated Treg cells as described above. Proliferation of CD45.1^+ T cells was assessed by FACS at D4. The % of suppression was calculated as described. For in vivo assays, 4.10^5 naïve Tconv cells were isolated as above and transferred with or without 1.10^5 Treg cells, to the retro-orbital sinus of 6-9 week-old RAG1^−/− mice. Recipients were then weighed every week and euthanized when weight loss was >30%.
# p65 [2] = details: cited from earlier work
# B16F1 melanoma cells = assay: qPCR on total tumor RNA at D16, early PTXF treatment; assay type: in vivo, C57Bl/6J mice
# c-Rel = molecular target: T1, c-Rel (Mus musculus, UniProt P15307); assay: Western blot on PTXF-treated Treg cells; assay type: cell-based, mice; details: Treg cells stimulated with anti-CD3/CD28 and mIL-2, 500 μg/mL PTXF
# T1 construct: CD4+GFP+ Treg cells were sorted form Foxp3eGFP spleens; endogenous in cells; host or cells: primary splenic CD4+Foxp3+ Treg cells from reporter mice
# T1 sequence (P15307 whole entry): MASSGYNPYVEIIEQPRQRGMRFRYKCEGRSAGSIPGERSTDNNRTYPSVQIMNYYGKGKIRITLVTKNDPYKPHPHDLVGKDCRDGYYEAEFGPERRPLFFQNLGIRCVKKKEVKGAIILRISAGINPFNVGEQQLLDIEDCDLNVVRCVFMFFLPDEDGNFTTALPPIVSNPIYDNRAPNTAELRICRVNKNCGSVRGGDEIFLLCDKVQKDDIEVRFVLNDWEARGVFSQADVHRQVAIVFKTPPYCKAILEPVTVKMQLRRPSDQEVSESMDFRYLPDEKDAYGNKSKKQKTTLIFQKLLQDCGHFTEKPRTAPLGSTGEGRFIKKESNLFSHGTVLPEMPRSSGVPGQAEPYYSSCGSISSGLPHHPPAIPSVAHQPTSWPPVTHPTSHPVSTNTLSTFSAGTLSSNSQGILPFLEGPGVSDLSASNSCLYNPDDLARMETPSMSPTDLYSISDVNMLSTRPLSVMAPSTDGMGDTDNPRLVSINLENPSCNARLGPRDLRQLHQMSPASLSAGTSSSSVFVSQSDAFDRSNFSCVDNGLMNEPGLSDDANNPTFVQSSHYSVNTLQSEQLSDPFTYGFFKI
# Procedure: Total cells suspensions were then activated with 5 μg/mL plate-coated anti-mCD3, 1 μg/ml soluble anti-mCD28 (BioLegend) and 10 ng/mL mIL-2, overnight at 37 C. Treg cells were then washed for further use.
# Total lysates were extracted using RIPA buffer and protease inhibitors with SDS. 20 μg (micrograms) protein extracts were ran in polyacrylamide gels and transferred onto PVDF membranes. Membranes were incubated with anti-p65, c-Rel (Santa-Cruz) and GAPDH (Fitzgerald) Abs, followed HRP-coupled secondary Abs.
# p65 [3] = assay: Western blot on PTXF-treated Treg cells; assay type: cell-based, mice; details: Treg cells stimulated with anti-CD3/CD28 and mIL-2, 500 μg/mL PTXF
# Procedure: Total cells suspensions were then activated with 5 μg/mL plate-coated anti-mCD3, 1 μg/ml soluble anti-mCD28 (BioLegend) and 10 ng/mL mIL-2, overnight at 37 C. Treg cells were then washed for further use. Total lysates were extracted using RIPA buffer and protease inhibitors with SDS. 20 μg (micrograms) protein extracts were ran in polyacrylamide gels and transferred onto PVDF membranes. Membranes were incubated with anti-p65, c-Rel (Santa-Cruz) and GAPDH (Fitzgerald) Abs, followed HRP-coupled secondary Abs.
# Treg cells [4] = assay: Flow cytometry of PTXF-treated Treg cells; assay type: cell-based, mice; details: 16 h stimulation, 500 μg/mL PTXF
# Procedure: Cells were isolated from thymus, spleen and lymph nodes by mechanical desegregation in PBS+ FBS 3%. For tumor-infiltrating cell suspensions, total tumors were digested in DMEM (Gibco) supplemented with 1 mg/ml collagenase type IV (Sigma) and 1 mg/ml DNase I (Sigma) for 40 minutes at 37° C., followed by centrifugation in a 36% Percoll solution. For intracellular cytokines analyses, cell suspensions were incubated 3 hours with PMA (Sigma, 50 ng/mL), ionoymycin (Sigma, 1 μg/mL) in the presence of Golgi Plug (BD), or incubated 4 hours with mitomycin C-treated WT splenocytes loaded with […] gp100/pmel 17 peptide (Neo Biolab) in the presence of Golgi Plug. Cells were then stained with mAbs purchased by eBioscience or Tonbo Bioscience. Foxp3 and cytokine staining were performed using the eBioscience kit and protocol. Cells were acquired on a LSR II (BD Biosciences) and analyzed with FlowJo (Tree Star) software. […] Total cells suspensions were then activated with 5 μg/mL plate-coated anti-mCD3, 1 μg/ml soluble anti-mCD28 (BioLegend) and 10 ng/mL mIL-2, overnight at 37 C. Treg cells were then washed for further use.
# B16F1 cells = assay: B16F1 tumor growth in immunodeficient mice; assay type: in vivo, RAG1−/− mice; details: PTXF vs PBS
# Procedure: (§1) 5×10^4 B16F1 or 5×10^5 CT-26 or BRAF^[…]^-/- cells diluted in sterile PBS1X were injected subcutaneously into the shaved flank of each mouse. For metastasis experiments, 2.5×10^4 B16F10 cells were injected intravenously in the tail vein. […] Anti-PD-1 (RMP1-14), anti-PD-L1 (10F.9G2) and anti-CD8 (YTS.169-4) mAbs were obtained from BioXCell. Rat IgG isotype control was from R&D Systems.
# B16F10 cells = assay: B16F10 metastatic melanoma, lung foci; assay type: in vivo, C57Bl/6J mice; details: B16F10 i.v.; early PTXF treatment
# Procedure: as §1
# Treg cells [5] = assay: RNA-Seq of PTXF-treated Treg cells; assay type: cell-based, mice; details: 500 μg/mL PTXF
# Procedure: Total cells suspensions were then activated with 5 μg/mL plate-coated anti-mCD3, 1 μg/ml soluble anti-mCD28 (BioLegend) and 10 ng/mL mIL-2, overnight at 37 C. Treg cells were then washed for further use. Total RNA was extracted using a Qiagen Rneasy Mini Kit with DNase treatment. For qPCR, RNA was reverse transcribed by Superscript III (Invitrogen). cDNAs were used for PCR with SYBR Green reagents (Quanta Biosciences, Gaithersburg, Md.) on a C1000 Touch thermal cycler (Bio Rad, Hercules, Calif.). The data was normalized to GAPDH expression. Primers sequences can be sent under request. For RNA-sequencing, libraries were prepared using an Illumina TruSeq Library Kit and sequenced by an Illumina 2500 instrument. Upon sequencing, raw FASTQ files were aligned on the mm10 genome using STAR aligner with default parameters (Dobin et al., 2013). Aligned fragments were then counted and annotated using Rsamtools v3.2 and the TxDb.Mmusculus.UCSC.mm10.knownGene' version 3.1.2 transcript database respectively. Normalized FPKM (fragments per kilobase per million mapped reads) were obtained using the robust FPKM estimate function of DeSeq2 v1.10.1 after removing the batch effect using the ComBat function of the sva package v3.18.0. Differentially expressed genes were obtained using the DESeqResults function of the same package. All p-values were adjusted for multiple comparison using the Benjamini & Hochberg FDR algorithm. For gene set enrichment analysis, the GSEA software was used, and Molecular Signature Database (MSigDB) including the ImmuneSigDB (C7 collection)(Godec et al., 2016; Subramanian et al., 2005).
structure (smiles),measurement,setting,value
"CC(=O)CCCCn1c(=O)c2c(ncn2C)n(C)c1=O [PTXF, 1-(5-oxohexyl)-3,7-dimethylxanthine]",prevention of colitis by PTXF-treated Treg,Treg cells [1],completely failed to prevent colitis
same,levels of p65 in T cells in vitro,p65 [2],unchanged
same,inflammatory response (activated T-cell markers and cytokines) in total tumors,B16F1 melanoma cells,dramatic enhancement of the inflammatory response
same,increase of Ccl22 mRNA,B16F1 melanoma cells; minor and non-significant,1.2 ×
same,c-Rel protein,c-Rel,significant reduction of c-Rel protein
same,levels of p65,p65 [3],unchanged
same,"expression of Treg markers such as Foxp3, CD25 and Helios",Treg cells [4],significantly decreased expression
same,tumor growth in immunodeficient background,B16F1 cells,no effect on tumor growth
same,total number of metastatic foci in lungs,B16F10 cells,significantly decreased
same,Foxp3 mRNA,Treg cells [5],unaffected
same,expression of Cbl-b,Treg cells [5],up-regulated
same,expression of Gzmb and Tgfb1,Treg cells [5],decreased expression
same,expression of c-Rel mRNA,Treg cells [5],unaffected
same,expression of genome organizer Sat1,Treg cells [5],up-regulated
